This is an account of results in ChEMBL document CHEMBL5724914, “Linking interpersonal differences in gut microbiota composition and drug biotransformation activity” (2024).

SMILES strings stand for the structures.

The conditions of data set [1]: human gut metagenome, 24 h, 2 µM.
For data set [2] the following is noted: human gut metagenome, 24 h, 2 µM. This is another data set of the same source.
Data set [3] can be described thus: The drug is tested on Z-006 corresponding to mouse gut metagenome with ENA study accession number: PRJEB37062 and ENA sample accession number: ERS12561806 for biotransformation under anaerobic condition. The drug concentrations were measured over 9 timepoints collected between 0 and 24 hours of incubation by liquid-chromatography-coupled mass spectrometry (LC–MS). To be noted: 2 µM.

A short description of data set [4]: The drug is tested on Z-003 corresponding to pig gut metagenome with ENA study accession number: PRJEB37062 and ENA sample accession number: ERS12561803 for biotransformation under anaerobic condition. The drug concentrations were measured over 9 timepoints collected between 0 and 24 hours of incubation by liquid-chromatography-coupled mass spectrometry (LC–MS). To be noted: 2 µM.

Data set [5] can be described thus: The drug is tested on Z-011 corresponding to mouse gut metagenome with ENA study accession number: PRJEB37062 and ENA sample accession number: ERS12561811 for biotransformation under anaerobic condition. The drug concentrations were measured over 9 timepoints collected between 0 and 24 hours of incubation by liquid-chromatography-coupled mass spectrometry (LC–MS). To be noted: 2 µM.

For data set [6] the following is noted: human gut metagenome, 24 h, 2 µM. The source holds these as a separate data set.
The conditions of data set [7]: human gut metagenome, 24 h, 2 µM. This is another data set of the same source.
Data set [8] can be described thus: The drug is tested on Z-010 corresponding to metagenome with ENA study accession number: PRJEB37062 and ENA sample accession number: ERS12561810 for biotransformation under anaerobic condition. The drug concentrations were measured over 9 timepoints collected between 0 and 24 hours of incubation by liquid-chromatography-coupled mass spectrometry (LC–MS). The conditions noted are these: 2 µM.

The conditions of data set [9]: human gut metagenome, 24 h, 2 µM. This is another data set of the same source.
Data set [10] in a line: The drug is tested on WLS-077 corresponding to human gut metagenome with ENA study accession number: PRJEB37062 and ENA sample accession number: ERS12561750 for biotransformation under anaerobic condition. The drug concentrations were measured over 9 timepoints collected between 0 and 24 hours of incubation by liquid-chromatography-coupled mass spectrometry (LC–MS). To be noted: 2 µM.

Data set [11] in a line: The drug is tested on Z-009 corresponding to pig gut metagenome with ENA study accession number: PRJEB37062 and ENA sample accession number: ERS12561809 for biotransformation under anaerobic condition. The drug concentrations were measured over 9 timepoints collected between 0 and 24 hours of incubation by liquid-chromatography-coupled mass spectrometry (LC–MS). To be noted: 2 µM.

For data set [12] the following is noted: human gut metagenome, 24 h, 2 µM. This is another data set of the same source.
For data set [13] the following is noted: human gut metagenome, 24 h, 2 µM. This is another data set of the same source.
Data set [14] can be described thus: The drug is tested on WLS-007 corresponding to human gut metagenome with ENA study accession number: PRJEB37062 and ENA sample accession number: ERS12561742 for biotransformation under anaerobic condition. The drug concentrations were measured over 9 timepoints collected between 0 and 24 hours of incubation by liquid-chromatography-coupled mass spectrometry (LC–MS). The conditions noted are these: 2 µM.

Data set [15] can be described thus: The drug is tested on WLS-086 corresponding to human gut metagenome with ENA study accession number: PRJEB37062 and ENA sample accession number: ERS12561752 for biotransformation under anaerobic condition. The drug concentrations were measured over 9 timepoints collected between 0 and 24 hours of incubation by liquid-chromatography-coupled mass spectrometry (LC–MS). The conditions noted are these: 2 µM.

Data set [16] in a line: The drug is tested on WLS-052 corresponding to human gut metagenome with ENA study accession number: PRJEB37062 and ENA sample accession number: ERS12561747 for biotransformation under anaerobic condition. The drug concentrations were measured over 9 timepoints collected between 0 and 24 hours of incubation by liquid-chromatography-coupled mass spectrometry (LC–MS). To be noted: 2 µM.

The nature of data set [17]: The drug is tested on Z-008 corresponding to metagenome with ENA study accession number: PRJEB37062 and ENA sample accession number: ERS12561808 for biotransformation under anaerobic condition. The drug concentrations were measured over 9 timepoints collected between 0 and 24 hours of incubation by liquid-chromatography-coupled mass spectrometry (LC–MS). The conditions noted are these: 2 µM.

Data set [18] is described as follows: The drug is tested on Z-007 corresponding to rat gut metagenome with ENA study accession number: PRJEB37062 and ENA sample accession number: ERS12561807 for biotransformation under anaerobic condition. The drug concentrations were measured over 9 timepoints collected between 0 and 24 hours of incubation by liquid-chromatography-coupled mass spectrometry (LC–MS). The conditions noted are these: 2 µM.

The conditions of data set [19]: human gut metagenome, 24 h, 2 µM. The source holds these as a separate data set.
Data set [20] can be described thus: The drug is tested on Z-024 corresponding to pig gut metagenome with ENA study accession number: PRJEB37062 and ENA sample accession number: ERS12561823 for biotransformation under anaerobic condition. The drug concentrations were measured over 9 timepoints collected between 0 and 24 hours of incubation by liquid-chromatography-coupled mass spectrometry (LC–MS). To be noted: 2 µM.
Note: call rule not given here.

Consider `CC1=C(CC(=O)O)c2cc(F)ccc2/C1=C\c1ccc([S+](C)[O-])cc1` (stereo not given), for which the “Bacterial Biotransformation” value is “Compound metabolized” in [1]; “Compound metabolized” in data set [2]; “Compound NOT metabolized” in data set [3]; “Compound NOT metabolized” in data set [4]; “Compound NOT metabolized” in data set [5]; “Compound metabolized” in [6]. Further, the “Bacterial Biotransformation” value in data set [7] is “Compound metabolized”; in [8], “Compound NOT metabolized”; in data set [9] it was “Compound metabolized”; in data set [10], “Compound metabolized”; in data set [11] it was “Compound NOT metabolized”; in data set [12] it was “Compound NOT metabolized”. The “Bacterial Biotransformation” value in data set [13] was “Compound metabolized”; in data set [14], “Compound metabolized”; in [15], “Compound metabolized”; in data set [16] it was “Compound metabolized”; in data set [17], “Compound NOT metabolized”; in data set [18], “Compound NOT metabolized”. The “Bacterial Biotransformation” value in data set [19] and in [20] was “Compound metabolized” in each case.

With `CN(C)CCC=C1c2ccccc2COc2ccccc21` [DOXEPIN], the “Bacterial Biotransformation” value is “Compound NOT metabolized” in data set [1]; “Compound metabolized” in [2]; “Compound NOT metabolized” in [3]; “Compound NOT metabolized” in data set [4]; “Compound NOT metabolized” in [5]; “Compound metabolized” in [6]. For the same compound, the “Bacterial Biotransformation” value in data set [7] is “Compound NOT metabolized”; in [8] it was “Compound NOT metabolized”; in data set [9], “Compound metabolized”; in data set [10], “Compound NOT metabolized”; in data set [11], “Compound metabolized”; in [12], “Compound metabolized”. The “Bacterial Biotransformation” value in [13] was “Compound NOT metabolized”; in data set [14], “Compound metabolized”; in data set [15], “Compound NOT metabolized”; in data set [16], “Compound NOT metabolized”; in data set [17], “Compound NOT metabolized”; in data set [18], “Compound NOT metabolized”. Further, the figures for the “Bacterial Biotransformation” value in data set [19] and in data set [20] were “Compound NOT metabolized” and “Compound metabolized”, respectively.

Turning to `Nc1nc(N)nc(-c2cc(Cl)ccc2Cl)n1.O=C(O)/C=C\C(=O)O` [IRSOGLADINE MALEATE], the “Bacterial Biotransformation” value in [1] is given as “Compound NOT metabolized”; in data set [2], “Compound metabolized”; in data set [3], “Compound NOT metabolized”; in data set [4], “Compound NOT metabolized”; in data set [5] it was “Compound NOT metabolized”; in [6] it was “Compound NOT metabolized”. Besides, the “Bacterial Biotransformation” value in [7], in data set [8], in data set [9], in data set [10], in data set [11] and in data set [12] was “Compound NOT metabolized” in each case. For the same compound, the “Bacterial Biotransformation” value was “Compound NOT metabolized” in [13]; “Compound NOT metabolized” in [14]; “Compound metabolized” in data set [15]; “Compound NOT metabolized” in data set [16]; “Compound NOT metabolized” in data set [17]; “Compound NOT metabolized” in data set [18]. Further, the “Bacterial Biotransformation” value in data set [19] and in data set [20] was “Compound NOT metabolized” throughout.
